Measurements reported in ChEMBL document CHEMBL4765300, “Discovery of a chiral fluorinated azetidin-2-one as a tubulin polymerisation inhibitor with potent antitumour efficacy” (Eur J Med Chem, 2020).
In brackets after ≈: the same amount, converted by molar mass.

What was measured:
[1] = Metabolic stability in human liver microsomes assessed as parent compound remaining at 10 uM measured after 60 mins in presence of NADPH by LC/MS/MS analysis; type: ADME, Microsome; details: read-out: Stabilty
[2] = Metabolic stability in human liver microsomes assessed as parent compound remaining at 10 uM measured after 5 mins in presence of NADPH by LC/MS/MS analysis; type: ADME, Microsome; details: read-out: Stabilty
[3] = Metabolic stability in human liver microsomes assessed as parent compound remaining at 10 uM measured after 10 mins in presence of NADPH by LC/MS/MS analysis; type: ADME, Microsome; details: read-out: Stabilty
[4] = Metabolic stability in human liver microsomes assessed as parent compound remaining at 10 uM measured after 20 mins in presence of NADPH by LC/MS/MS analysis; type: ADME, Microsome; details: read-out: Stabilty
[5] = Metabolic stability in human liver microsomes assessed as parent compound remaining at 10 uM measured after 30 mins in presence of NADPH by LC/MS/MS analysis; type: ADME, Microsome; details: read-out: Stabilty
[6] = Intrinsic clearance in human liver microsomes at 10 uM incubated for 60 mins in presence of NADPH by LC/MS/MS analysis; type: ADME, Microsome; details: read-out: CLH
[7] = Half life in human liver microsomes at 10 uM in presence of NADPH by LC/MS/MS analysis; type: ADME, Microsome
physchem = details: phosphate buffer, pH 7.4

Structure (SMILES)	remaining at 1 h, 10 µM [1] [%]	remaining at 5 min, 10 µM [2] [%]	remaining at 10 min, 10 µM [3] [%]	remaining at 20 min, 10 µM [4] [%]	remaining at 0.5 h, 10 µM [5] [%]	CLint scaled at 10 µM [6] [mL/min/kg]	half-life at 10 µM [7] [min]	solubility at 10 min (physchem) [µg/mL]
COc1ccc([C@H]2[C@H](CF)C(=O)N2c2cc(OC)c(OC)c(OC)c2)cc1O	73	85.6	91.6	88.4	90.9	< 8.6	> 145	41.1 (≈ 105 µM)
COc1ccc(/C=C\c2cc(OC)c(OC)c(OC)c2)cc1O [COMBRETASTATIN A4]	5.2	74.1	57.1	37.2	17.5	89.5	13.9	1.04 (≈ 3.29 µM)
